Assay results as given in patent US20100120763A1, “IMIDAZO[5,1-C][1,2,4]BENZOTRIAZINE DERIVATIVES AS INHIBITORS OF PHOSPHODIESTERASES” (priority 2008, published 2010).

Assays:
PDE10A = biological target: T1, PDE10A (Homo sapiens, UniProt Q9Y233); assay: Inhibition of recombinant PDE10A (baculovirus/SF21 system), [3H]-cAMP SPA; type: biochemical; conditions: recombinant PDE10A1, cytosolic; 0.1 μM [3H]-cAMP, 37° C., 30 minutes; read-out: PDE10A IC50
T1 construct: made in house; host or cells: SF21 insect cells (baculovirus)
Description: Inhibition of Recombinant PDE10A (Baculovirus/SF21 System)
The gene was than inserted into a baculovirus vector, ligated with the baculovirus DNA. The enzyme-protein was expressed in SF21-cells. The enzyme was isolated from these cells by harvesting the cells by an centrifugation at 500 g to collect the cells.
The cells were resuspended in 50 mM Tris-HCl/1 mM EDTA/250 mM Sucrose buffer, pH=7.4 (Sigma, Deisenhofen, Germany; Merck, Darmstadt, Germany) and lysed by sonification of the cells (three times for 15 seconds, Labsonic U, Fa. Braun, Degersheim, Switzerland, level “high”). The cytosolic PDE10A was obtained by a centrifugation at 48,000 g for 1 h in the supernatant and stored at −70° C.
PDE activity was determined in a one step procedure in microtiter plates. The reaction mixture of 100 μl contained 50 mM Tris-HCl/5 mM MgCl2 buffer (pH=7.4, Sigma, Deisenhofen, Germany; Merck, Darmstadt, Germany) 0.1 μM [3H]-cAMP (Amersham, Buckinghamshire, UK) and the enzyme. Non-specific enzyme activity was determined without the enzyme. The reaction was initiated by addition of the substrate solution and was carried out at 37° C. for 30 minutes. Enzymatic activity then was stopped by addition of 25 μl Ysi-SPA-beads (Amersham-Pharmacia). One hour later the mixture was measured in a liquid scintillation counter for microtiter plates (Microbeta Trilux). The Biomek 2000 (Beckman) was used routinely for pipetting of the incubation mixture. […] For determination of IC50 values the Hill-plot, 2-parameter-model, was used.

PDE2A = biological target: T2, PDE2A (Homo sapiens, UniProt O00408); assay: Inhibition of recombinant PDE2A (expressed in baculovirus/SF21-cells), [3H]-cAMP SPA; type: biochemical
T2 construct: made in house; host or cells: SF21 insect cells (baculovirus)
Description: Inhibition of Recombinant PDE2A (Expressed in Baculovirus/SF21-Cells)
PDE2A (NM002599) was cloned and the gene was inserted in the baculovirus and the enzyme-protein expressed in SF21-cells. The enzyme was isolated from these cells by harvesting the cells by an centrifugation at 200 g to collect the cells. The cells were resuspended in 50 mM Tris-HCl/5 mM MgCl2 buffer (pH=7.4) (Sigma, Deisenhofen, Germany; Merck, Darmstadt, Germany) and lysed by a sonication of the cells (three times for 15 seconds, Labsonic U, Fa. Braun, Degersheim, Switzerland, level “high”). The membrane fraction of PDE2A was obtained by a centrifugation at 48 000 g for 1 h, resuspended in buffer and stored at −70° C.
PDE2A activity was determined in a one step procedure in microtiterplates. The reaction mixture of 100 μl contained 50 mM Tris-HCl/5 mM MgCl2 buffer (pH=7.4) (Sigma, Deisenhofen, Germany; Merck, Darmstadt, Germany), 0.5 μM [3H]-cAMP (Amersham, Buckinghamshire, UK), 1000 nM cGMP and the enzyme. Non-specific enzyme activity was tested in the absence of cGMP. The reaction was initiated by addition of the substrate solution and was carried out at 37° C. for 30 minutes. Enzymatic activity then was stopped by addition of 25 μl SPA-beads (Amersham-Pharmacia). One hour later the mixture was measured in a liquid scintillation counter for microtiterplates (Microbeta Trilux). For pipetting of the incubation mixture the robot Biomek (Fa. Beckman) was routinely used.
For determination of IC50 values the Hill-plot, 2-parameter-model, was used.

T2 sequence (O00408 whole entry): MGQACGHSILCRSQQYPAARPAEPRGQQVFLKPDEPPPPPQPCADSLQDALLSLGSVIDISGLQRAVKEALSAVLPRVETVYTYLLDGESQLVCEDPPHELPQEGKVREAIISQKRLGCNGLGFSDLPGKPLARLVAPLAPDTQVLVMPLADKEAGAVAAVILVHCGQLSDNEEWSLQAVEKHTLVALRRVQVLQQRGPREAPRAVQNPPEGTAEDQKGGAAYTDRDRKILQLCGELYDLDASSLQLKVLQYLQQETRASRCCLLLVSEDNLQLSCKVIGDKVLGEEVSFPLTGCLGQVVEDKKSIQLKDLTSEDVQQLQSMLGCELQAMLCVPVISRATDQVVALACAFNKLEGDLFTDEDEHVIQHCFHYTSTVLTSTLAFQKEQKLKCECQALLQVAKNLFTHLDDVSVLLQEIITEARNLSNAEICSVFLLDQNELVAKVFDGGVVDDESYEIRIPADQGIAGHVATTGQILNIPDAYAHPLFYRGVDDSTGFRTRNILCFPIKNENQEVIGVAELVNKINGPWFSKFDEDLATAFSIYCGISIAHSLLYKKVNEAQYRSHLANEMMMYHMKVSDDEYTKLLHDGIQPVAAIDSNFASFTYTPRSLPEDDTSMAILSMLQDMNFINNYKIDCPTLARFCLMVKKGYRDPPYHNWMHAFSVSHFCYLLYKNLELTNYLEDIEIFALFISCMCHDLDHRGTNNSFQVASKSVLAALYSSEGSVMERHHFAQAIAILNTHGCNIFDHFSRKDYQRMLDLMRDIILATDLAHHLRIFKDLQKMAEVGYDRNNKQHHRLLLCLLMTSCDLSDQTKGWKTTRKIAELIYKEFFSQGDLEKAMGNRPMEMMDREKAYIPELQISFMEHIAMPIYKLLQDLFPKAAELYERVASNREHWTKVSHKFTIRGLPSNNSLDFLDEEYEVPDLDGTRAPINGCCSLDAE
T1 sequence (Q9Y233 1-779 isoform Q9Y233-1): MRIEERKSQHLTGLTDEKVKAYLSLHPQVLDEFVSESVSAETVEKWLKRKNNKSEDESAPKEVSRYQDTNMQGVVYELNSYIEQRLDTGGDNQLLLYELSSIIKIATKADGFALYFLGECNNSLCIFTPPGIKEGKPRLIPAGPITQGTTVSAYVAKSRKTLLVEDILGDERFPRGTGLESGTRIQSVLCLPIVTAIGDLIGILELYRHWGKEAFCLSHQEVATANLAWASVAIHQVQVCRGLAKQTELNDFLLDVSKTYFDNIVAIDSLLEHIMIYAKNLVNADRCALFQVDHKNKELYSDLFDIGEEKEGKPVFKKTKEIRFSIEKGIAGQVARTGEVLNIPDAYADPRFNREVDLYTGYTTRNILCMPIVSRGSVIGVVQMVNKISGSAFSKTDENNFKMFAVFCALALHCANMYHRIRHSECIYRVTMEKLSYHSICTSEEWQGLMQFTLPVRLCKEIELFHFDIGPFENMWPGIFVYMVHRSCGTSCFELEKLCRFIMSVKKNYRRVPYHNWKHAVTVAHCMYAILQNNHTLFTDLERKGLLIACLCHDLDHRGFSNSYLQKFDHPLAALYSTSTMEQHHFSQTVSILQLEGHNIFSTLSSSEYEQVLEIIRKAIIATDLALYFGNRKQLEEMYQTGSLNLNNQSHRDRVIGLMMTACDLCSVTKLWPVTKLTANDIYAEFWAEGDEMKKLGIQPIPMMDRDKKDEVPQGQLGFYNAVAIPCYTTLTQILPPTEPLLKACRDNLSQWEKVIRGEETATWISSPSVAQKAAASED

`COc1cc(F)cc2c1nnc1c(C)nc(-c3ccc(F)cc3Cl)n12` [Example 111, 1-(2-chloro-4-fluorophenyl)-8-fluoro-6-methoxy-3-methylimidazo[5,1-c][1,2,4]benzotriazine] showed an IC50 (PDE10A) of 3.01 nM and an IC50 (PDE2A) of 324 nM.
In the case of `COc1cc(F)c2nnc3c(C)nc(-c4ccc(F)cc4C)n3c2c1` [Example 69, 6-fluoro-1-(4-fluoro-2-methylphenyl)-8-methoxy-3-methylimidazo[5,1-c][1,2,4]benzotriazine], the IC50 (PDE10A) is reported as 34.7 nM and the IC50 (PDE2A) is reported as 55.5 nM.
`COc1cc(F)cc2c1nnc1c(C)nc(-c3cc(C)ccc3Cl)n12` [Example 107, 1-(2-chloro-5-methylphenyl)-8-fluoro-6-methoxy-3-methylimidazo[5,1-c][1,2,4]benzotriazine] showed an IC50 (PDE10A) of 2.98 nM and an IC50 (PDE2A) of 62.5 nM.
`COc1cc(F)c2nnc3c(C)nc(-c4cc(F)ccc4C)n3c2c1` [Example 73, 6-fluoro-1-(5-fluoro-2-methylphenyl)-8-methoxy-3-methylimidazo[5,1-c][1,2,4]benzotriazine] gave an IC50 (PDE10A) of 18.9 nM and an IC50 (PDE2A) of 15.1 nM.
`Cc1nc(-c2cc(Cl)ccc2Cl)n2c1nnc1ccc(N3CCCCC3)cc12` [Example 180, 1-(2,5-Dichloro-phenyl)-3-methyl-8-piperidin-1-yl-imidazo[5,1-c][1,2,4]benzotriazine] was tested, and the IC50 (PDE10A) was 49.5 nM and the IC50 (PDE2A) was 6.9 nM.
With `COc1cc(OCc2ccccc2)cc2c1nnc1c(C)nc(-c3ccncc3C)n12` [Example 151, 8-(benzyloxy)-6-methoxy-3-methyl-1-(3-methylpyridin-4-yl)imidazo[5,1-c][1,2,4]benzotriazine] the IC50 (PDE10A) was 0.7 nM and the IC50 (PDE2A) was 80.6 nM.
`COc1cc(F)cc2c1nnc1c(C)nc(-c3cc(OC(F)(F)F)ccc3Cl)n12` [Example 125, 1-[2-chloro-5-(trifluoromethoxy)phenyl]-8-fluoro-6-methoxy-3-methylimidazo[5,1-c][1,2,4]benzotriazine] gave an IC50 (PDE10A) of 12.1 nM and an IC50 (PDE2A) of 117 nM.
Work on `COc1cc(N2CCOCC2)cc2c1nnc1c(C)nc(-c3ccccc3C)n12` [Example 66, 6-methoxy-3-methyl-1-(2-methylphenyl)-8-morpholin-4-ylimidazo[1,5-c][1,2,4]benzotriazine] yielded an IC50 (PDE10A) of 1.53 nM and an IC50 (PDE2A) of 110 nM.
Compound `COc1ccc(F)c(-c2nc(C)c3nnc4c(F)cc(OC)cc4n23)c1` [Example 76, 6-fluoro-1-(2-fluoro-5-methoxyphenyl)-8-methoxy-3-methylimidazo[5,1-c][1,2,4]benzotriazine] has an IC50 (PDE10A) of 9.6 nM and an IC50 (PDE2A) of 9.3 nM.
For `COc1cc(F)c2nnc3c(C)nc(-c4cnc(F)c(C)c4)n3c2c1` [Example 92, 6-fluoro-1-(6-fluoro-5-methylpyridin-3-yl)-8-methoxy-3-methylimidazo[5,1-c][1,2,4]benzotriazine], the IC50 (PDE10A) was 523 nM and the IC50 (PDE2A) was 469 nM.
Work on `COc1cc(F)cc2c1nnc1c(C)nc(-c3cccc(F)c3C)n12` [Example 117, 8-fluoro-1-(3-fluoro-2-methylphenyl)-6-methoxy-3-methylimidazo[5,1-c][1,2,4]benzotriazine] yielded an IC50 (PDE10A) of 3.55 nM and an IC50 (PDE2A) of 1150 nM.
Work on `COc1cc(F)cc2c1nnc1c(C)nc(-c3ccc(F)cc3C)n12` [Example 110, 8-fluoro-1-(4-fluoro-2-methylphenyl)-6-methoxy-3-methylimidazo[5,1-c][1,2,4]benzotriazine] yielded an IC50 (PDE10A) of 8.52 nM and an IC50 (PDE2A) of 609 nM.
`COc1cc(OC)c2nnc3c(C)nc(-c4c(C)nn(C)c4C)n3c2c1` [Example 52, 6,8-dimethoxy-3-methyl-1-(1,3,5-trimethyl-1H-pyrazol-4-yl)imidazo[5,1-c][1,2,4]benzotriazine] gave an IC50 (PDE10A) of 1.85 nM and an IC50 (PDE2A) of 292 nM.
`Cc1nc(-c2cc(Cl)ccc2Cl)n2c1nnc1ccc(N3CCOCC3)cc12` [Example 181, 1-(2,5-Dichloro-phenyl)-3-methyl-8-morpholin-4-yl-imidazo[5,1-c][1,2,4]benzotriazine] gave an IC50 (PDE10A) of 24.3 nM and an IC50 (PDE2A) of 2.3 nM.
`COc1cc(OC)c2nnc3c(C)nc(-c4cccnc4C)n3c2c1` [Example 48, 6,8-dimethoxy-3-methyl-1-(2-methylpyridin-3-yl)imidazo[5,1-c][1,2,4]benzotriazine] gave an IC50 (PDE10A) of 1.48 nM and an IC50 (PDE2A) of 196 nM.
`COc1cc(C(F)(F)F)cc2c1nnc1c(C)nc(-c3ccncc3C)n12` [Example 134, 6-methoxy-3-methyl-1-(3-methylpyridin-4-yl)-8-(trifluoromethyl)benzo[e]imidazo[5,1-c][1,2,4]triazine] gave an IC50 (PDE10A) of 1.48 nM and an IC50 (PDE2A) of 346 nM.
With `COc1cc(F)cc2c1nnc1c(C)nc(-c3ccncc3)n12` [Example 129, 8-fluoro-6-methoxy-3-methyl-1-pyridin-4-ylimidazo[5,1-c][1,2,4]benzotriazine] the IC50 (PDE10A) was 61.6 nM and the IC50 (PDE2A) was 4950 nM.
`COc1ccc(Cl)cc1-c1nc(C)c2nnc3c(OC)cc(F)cc3n12` [Example 102, 1-(5-chloro-2-methoxyphenyl)-8-fluoro-6-methoxy-3-methylimidazo[5,1-c][1,2,4]benzotriazine] showed an IC50 (PDE10A) of 14.5 nM and an IC50 (PDE2A) of 704 nM.
Compound `COc1ccc(Cl)c(-c2nc(C)c3nnc4c(F)cc(OC)cc4n23)c1` [Example 78, 1-(2-chloro-5-methoxyphenyl)-6-fluoro-8-methoxy-3-methylimidazo[5,1-c][1,2,4]benzotriazine] has an IC50 (PDE10A) of 8.51 nM and an IC50 (PDE2A) of 3.32 nM.
`COc1cc(F)c2nnc3c(C)nc(-c4cccc(F)c4C)n3c2c1` [Example 84, 6-fluoro-1-(3-fluoro-2-methylphenyl)-8-methoxy-3-methylimidazo[5,1-c][1,2,4]benzotriazine] was tested, and the IC50 (PDE10A) was 10.7 nM and the IC50 (PDE2A) was 61 nM.
For `COc1cc(F)cc2c1nnc1c(C)nc(-c3cnc(F)c(C)c3)n12` [Example 121, 8-fluoro-1-(6-fluoro-5-methylpyridin-3-yl)-6-methoxy-3-methylimidazo[5,1-c][1,2,4]benzotriazine], the IC50 (PDE10A) was 133 nM and the IC50 (PDE2A) was > 1000 nM.
For `CCOc1ccc(Cl)c(-c2nc(C)c3nnc4c(F)cc(OC)cc4n23)c1` [Example 77, 1-(2-chloro-5-ethoxyphenyl)-6-fluoro-8-methoxy-3-methylimidazo[5,1-c][1,2,4]benzotriazine], the IC50 (PDE10A) was 30.9 nM and the IC50 (PDE2A) was 10.3 nM.
Work on `COc1cc(F)cc2c1nnc1c(C)nc(-c3c(C)n[nH]c3C)n12` [Example 124, 1-(3,5-dimethyl-1H-pyrazol-4-yl)-8-fluoro-6-methoxy-3-methylimidazo[5,1-c][1,2,4]benzotriazine] yielded an IC50 (PDE10A) of 13 nM and an IC50 (PDE2A) of 1430 nM.
`COc1cccc2c1nnc1c(C)nc(-c3ccccc3C)n12` [Example 60, 6-methoxy-3-methyl-1-(2-methylphenyl)imidazo[5,1-c][1,2,4]benzotriazine] gave an IC50 (PDE10A) of 3.31 nM and an IC50 (PDE2A) of 172 nM.
With `COc1cc(F)c2nnc3c(C)nc(-c4cc(C)ccc4Cl)n3c2c1` [Example 72, 1-(2-chloro-5-methylphenyl)-6-fluoro-8-methoxy-3-methylimidazo[5,1-c][1,2,4]benzotriazine] the IC50 (PDE10A) was 7.77 nM and the IC50 (PDE2A) was 14.4 nM.
For `COc1cc(OC)c2nnc3c(C)nc(-c4cnccc4C)n3c2c1` [Example 45, 6,8-dimethoxy-3-methyl-1-(4-methylpyridin-3-yl)imidazo[5,1-c][1,2,4]benzotriazine], the IC50 (PDE10A) was 4.16 nM and the IC50 (PDE2A) was 775 nM.
For `COc1cc(F)c2nnc3c(C)nc(-c4ccc(F)nc4C)n3c2c1` [Example 93, 6-fluoro-1-(6-fluoro-2-methylpyridin-3-yl)-8-methoxy-3-methylimidazo[5,1-c][1,2,4]benzotriazine], the IC50 (PDE10A) was 252 nM and the IC50 (PDE2A) was 312 nM.
In the case of `COc1cc(F)cc2c1nnc1c(C)nc(-c3c(C)noc3C)n12` [Example 115, 1-(3,5-dimethylisoxazol-4-yl)-8-fluoro-6-methoxy-3-methylimidazo[5,1-c][1,2,4]benzotriazine], the IC50 (PDE10A) is reported as 67 nM and the IC50 (PDE2A) is reported as > 10000 nM.
`COc1cncc(-c2nc(C)c3nnc4c(F)cc(OC)cc4n23)c1` [Example 95, 6-fluoro-8-methoxy-1-(5-methoxypyridin-3-yl)-3-methylimidazo[5,1-c][1,2,4]benzotriazine] gave an IC50 (PDE10A) of 45.5 nM and an IC50 (PDE2A) of 39.4 nM.
